Experimental data from patent US9023814B2, “Glycomimetic compounds as anti-infectious against pathogens lectins” (priority 2010, dated 2015).
pIC50, pKd: −log10 of the molar value.

Experiments:
[1] = biological target: T1, LecA (Pseudomonas aeruginosa, UniProt Q05097); assay: biochemical; format: binding
Description: Surface Plasmon Resonance (SPR).
Equivalent method, but performed in miniaturized channel on a galactose-containing chips in a more sophisticated apparatus (Biacore 3000) that allows for a precise determination of the IC50.
More particularly, SPR inhibition experiments were performed on a Biacore 3000 instrument at 25° C. Measurements were carried out on 2 channels with 2 immobilised sugars: α-L-fucose (channel 1), α-D-galactose (channel 2). Immobilization of sugars was performed at 25° C. using running buffer (HBS) at 5 μL/min. Immobilization on each channel (CM5 Chip) was performed independently as follows. First, channel was activated by injecting a fresh mixture of EDC/NHS (35 μL, 420 s). Then, a solution of strepatavidin (100 μg/mL in Na acetate pH 5 buffer) was injected (50 μL, 600 s). Remaining reactive species were quenched by injecting ethanolamine (1M, 35 μL, 420 s). Finally a solution of the desired biotinylated-polyacrylamide-sugar (Lectinity, 200 μg/mL) was coated onto the surface (50 μL, 600 s) through streptavidin-biotin interaction. This procedure led to 804 RU (fucoside) and 796 RU (galactoside) of immobilized sugars on channel 1 and 2 respectively. Inhibition experiments were performed with the galactosylated channel 2 and plots represent subtracted data (channel 2-channel 1).
LecA was injected using running buffer consisting of HEPES 10 mM, NaCl 150 mM, CaCl2 10 mM, Tween P20 0.005%, pH 7.4. Inhibition studies consisted in the injection (150 μL, 10 μL/min, dissociation: 120 s) of incubated (>1 h, r.t.) mixtures of LecA (5 μM) and various concentrations of inhibitor (2-fold cascade dilutions). For each inhibition assay, LecA (5 μM) without inhibitor was injected to observe the full adhesion of the lectin onto the sugar-coated surface (0% inhibition). The CM5 chip was fully regenerated by successive injections of D-Galactose (2×30 μL, 100 mM in running buffer).
Binding was measured as RU over time after blank subtraction, and data were then evaluated using the BIAevaluation Software, version 4.1. For IC50 evaluation, the response (Req-fitted) was considered as the amount of lectin bound to the sugar surface at equilibrium in the presence of a defined concentration of inhibitor. Inhibition curves were obtained by plotting the percentage of inhibition against the inhibitor concentration (on a logarithmic scale) by using Origin 7.0 software (OriginLab Corp.) and IC50 values were extracted from sigmoidal fit of the inhibition curve.

[2] = biological target: T1, LecA; assay: Enzyme-Linked Lectin Assay (ELLA), biotinylated LecA binding to polymeric galactose
Description: Enzyme-Linked Lectin Assay (ELLA) Experiments 96-well plates are covered with polymer presenting galactose (which is the monosaccharide that is bound by LecA). The lectin labelled with biotin is added in presence of competing glycomimetics. IC50 can be measured.
More particularly, ELLA experiments were conducted using 96-well microtitre plates (Nunc Maxisorb) coated with polymeric β-D-galactose (5 μg/mL; Lectinity Holding, Inc., Moscow) diluted in carbonate buffer, pH 9.6 (100 μL) for 1 h at 37° C. After blocking at 37° C. for 1 h with 100 μL per well of 3% (w/v) BSA in PBS, plates were incubated at 37° C. for 1 h with 100 μL of biotinylated LecA at 0.1 μg/mL in the presence of serial dilutions of inhibitors. After washing with T-PBS (PBS containing 0.05% Tween), 100 μL of streptavidinperoxidase conjugate (dilution 1:10000; Boehringer-Mannheim) was added and left for 1 h at 37° C. The color was developed using 100 μL per well of 0.05 M phosphate/citrate buffer containing O-phenylenediamine dihydrochloride (0.4 mg/mL) and urea hydrogen peroxide (0.4 mg/mL) (Sigma-Aldrich). The reaction was stopped by the addition of 50 μL of 30% H2SO4. Absorbance was read at 490 nm using a microtitre plate reader (Bio-Rad; model 680).

[3] = biological target: T1, LecA; assay: biochemical; format: binding; remark: listed apart in the source
Description: Isothermal Titration Microcalorimetry (ITC).
The method allows for a direct measurement of the affinity between the glycomimetics and the LecA lectin. The dissociation constant is measured.
More particularly, recombinant lyophilized LecA was dissolved in buffer (0.1 M TrisHCl, 6 μM CaCl2, pH 7.5) and degassed (see Supp. Info. for concentration details). Protein concentration was checked by measurement of optical density using a theoretical molar extinction coefficient of 28000. Carbohydrate ligands were dissolved directly into the same buffer, degassed, and placed in the injection syringe. ITC was performed with a VP-ITC MicroCalorimeter from MicroCal Incorporated. PA-IL was placed into the 1.4478-mL sample cell, at 25° C. Titration was performed with 10-μL injections of carbohydrate ligands every 300 s. Data were fitted with MicroCal Origin 7 software, according to standard procedures. Fitted data yielded the stoichiometry (n), the association constant (Ka) and the enthalpy of binding (ΔH).
Other thermodynamic parameters (i.e. changes in free energy, ΔG, and entropy, ΔS) were calculated from the equation: ΔG=ΔH TΔS=−RT Inka where T is the absolute temperature and R=8.314 J·mol^−1·K^−1. Two or three independent titrations were performed for each ligand tested.

[4] = biological target: T1, LecA; assay: Inhibition of Hemagglutination (HIA), LecA-induced agglutination of rabbit erythrocytes; format: cell-based; conditions: LecA 6 μg/mL, 25° C.
Description: Inhibition of Hemagglutination (IHA) (or Hemagglutination Inhibition Assays (HIA)).
The LecA lectin agglutinates red blood cells since they are covered by glycoconjugates. The glycomimetics inhibit this agglutination.
For each compound the minimum concentration able to perform inhibition has been evaluated. The method is not very quantitative but mimics natural system.
More particularly, hemagglutination inhibition assays were performed in U-shaped 96-well microtitre plates. Rabbit erythrocytes were bought from Biomerieux and used without further washing. The erythrocytes were diluted to a 4% solution in NaCl (150 mM). Lectin solutions of 2 mg/mL were prepared in Tris/HCl 20 mM, NaCl 100 mM and CaCl2 100 μM. The hemagglutination unit (HU) was first obtained by the addition of 25 μL of the 4% erythrocyte solution to 25 μL aliquots of sequential (two-fold) lectin dilutions. The mixture was incubated at 25° C. for 60 minutes. The HU was measured as the minimum lectin concentration required to […] hemagglutination. For the following lectin-inhibition assays, lectin concentrations of four times that of the hemagglutination unit were used, i.e. a concentration of 6 μg/mL for LecA. Subsequent assays were then carried out by the addition of 12.5 μL lectin solution (at the required concentration) to 25 μL of sequential dilutions of glycoclusters, monomer molecules and controls. These solutions were then incubated at 25° C. for 2 h then 12.5 μL of 4% erythrocyte solution was added followed by an additional incubation at 25° C. for 30 minutes. The minimum inhibitory concentration for each molecule was determined by simple eye detection.
Compounds 5, 10, 14, 19, 21, 23, 25, 27, 29 and 31 were evaluated towards LecA according to Method 1.

[5] = test system: P. aeruginosa; assay: Mice model of lung infection, alveolar capillary barrier permeability (125I-albumin); format: in vivo; conditions: co-instillation into lungs with P. aeruginosa, 6 h after infection
Description: Mice were briefly anesthetized with inhaled sevoflurane. For each mouse, 50 l of a bacterial inoculum of 5×10^8 CFU/ml was instilled into the lungs through a gavage inserted into trachea via the oropharynx. The alveolar capillary barrier permeability was evaluated by measuring residual ^125I-albumin instilled intratracheally as an alveolar protein tracer in the lungs and its leakage and accumulation in the plasma aftert 6 h after infection. The intratracheal instillate was a mixture of 1 μCi of ^125I-labeled albumin and 5% bovine albumin together with the P. aeruginosa inoculate and different monosaccharides or glycocompounds. The total radioactivity in the instillate was measured. Fifty microliters of instillate was inoculated into the lungs of each anesthetized mouse. […] The blood was collected by carotid arterial puncture, and a sternotomy was performed to harvest and measure the radioactivity in the lungs, trachea, and stomach. The quantity of 125l-albumin that leaked into the circulation was calculated by multiplying the activity in a blood sample by the volume of blood.
Compound 14 has been compared with two monosaccharides: glucose and galactose, in animal models assays. […] For this, labelled albumin was […] was estimated. […]

T1 sequence (Q05097 whole entry): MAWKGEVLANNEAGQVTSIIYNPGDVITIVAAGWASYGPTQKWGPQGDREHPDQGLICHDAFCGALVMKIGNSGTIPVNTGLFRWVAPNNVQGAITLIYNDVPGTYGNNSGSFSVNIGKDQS

Compound: O=C(Cn1cc(CO)nn1)Nc1ccc(O[C@@H]2O[C@H](CO)[C@H](O)[C@H](O)[C@H]2O)cc1 [Comp. 14, 4-[(1,2,3-Triazol-4-hydroxymethyl-1-yl)-acetamido]phenyl β-D-galactopyranoside]
- pIC50 [1]: 5.59
- pIC50 [2]: 4.34
- pKd [3]: 5.24
- inhibiting concentrations of lectin-induced red cells agglutination (minimum inhibitory concentration) [4]: 250 µM
- reduction of lung damages (alveolar barrier permeability) versus bacteria without sugar [5]: approximately 50%
